This passage reports Retention_time and Drug metabolism results from ChEMBL document CHEMBL3526157, “Unique metabolic pathway of [(14)C]lenvatinib after oral administration to male cynomolgus monkey” (Drug Metab Dispos, 2012).

Structures are written as SMILES.

Data set [1] concerns Cynomolgus monkey. The experiment in a line: Drug retention time in cynomolgus monkey treated with 30 mg/kg, po of [14C]lenvatinib administered on day 1, 2 and 4 by radio-LC/MS analysis. The format is ADME, organism-based, Macaca fascicularis. Also noted: dose 30 mg/kg, route oral. The note with it: in vivo.
The test system of data set [2] is Cynomolgus monkey. The experiment in a line: Drug metabolism in cynomolgus monkey treated with 30 mg/kg, po of [14C]lenvatinib administered on day 1, 2 and 4 by radio-LC/MS analysis. The format is ADME, organism-based, Macaca fascicularis. The arrangement: dose 30 mg/kg, route oral. The note with it: in vivo.
Data set [3] in a line: Drug metabolism in potassium phosphate buffer at pH 7.4 assessed as decrease of parent compound at 50 uM in presence of GSH. The format is physicochemical. The note with it: pH 7.4, 50 µM.
Data set [4] in a line: Drug metabolism in potassium phosphate buffer at pH 7.4 assessed as decrease of parent compound at 50 uM in presence of NAC. The format is physicochemical. The conditions noted are these: pH 7.4, 50 µM.
A short description of data set [5]: Drug metabolism in human liver S9 fraction assessed as 5-(3-(6-carbamoyl-7-methoxyquinolin-4-ylthio)-1-(carboxymethylamino)-1-oxopropan-2-ylamino)-[…]-5-oxopentanoic acid level at 50 uM up to 120 mins by HPLC analysis in presence of GSH and absence of NADPH. The format is ADME, tissue-based. The note with it: s9, 2 h.
Data set [6] in a line: Drug metabolism in potassium phosphate buffer at pH 7.4 assessed as decrease of parent compound at 50 uM in presence of cysteine. Format: physicochemical. The note with it: pH 7.4, 50 µM.
The nature of data set [7]: Drug metabolism in Sprague-Dawley rat liver S9 fraction assessed as 5-(3-(6-carbamoyl-7-methoxyquinolin-4-ylthio)-1-(carboxymethylamino)-1-oxopropan-2-ylamino)-[…]-5-oxopentanoic acid level at 50 uM up to 60 mins by HPLC analysis in presence of GSH and NADPH. The conditions noted are these: s9, 1 h.
A short description of data set [8]: Drug metabolism in cynomolgus monkey liver S9 fraction assessed as decrease of parent compound level at 50 uM up to 120 mins by HPLC analysis in presence of GSH and absence of NADPH. The format is ADME, tissue-based, Macaca fascicularis. The conditions noted are these: s9, 2 h, TDE = time-dependent effect.
Data set [9] can be described thus: Drug metabolism in human liver S9 fraction assessed as 5-(3-(6-carbamoyl-7-methoxyquinolin-4-ylthio)-1-(carboxymethylamino)-1-oxopropan-2-ylamino)-[…]-5-oxopentanoic acid level at 50 uM up to 120 mins by HPLC analysis in presence of GSH and NADPH. Format: ADME, subcellular. The note with it: s9, 2 h.
Data set [10] can be described thus: Drug metabolism in cynomolgus monkey liver S9 fraction assessed as 5-(3-(6-carbamoyl-7-methoxyquinolin-4-ylthio)-1-(carboxymethylamino)-1-oxopropan-2-ylamino)-[…]-5-oxopentanoic acid level at 50 uM up to 120 mins by HPLC analysis in presence of GSH and NADPH. The format is ADME, subcellular, Macaca fascicularis. The conditions noted are these: s9, 2 h.
Data set [11] in a line: Drug metabolism in Sprague-Dawley rat liver S9 fraction assessed as decrease of parent compound level at 50 uM up to 60 mins by HPLC analysis in presence of GSH and absence of NADPH. The note with it: s9, 1 h, TDE = time-dependent effect.
Data set [12] can be described thus: Drug metabolism in human liver S9 fraction assessed as decrease of parent compound level at 50 uM up to 120 mins by HPLC analysis in presence of GSH and NADPH. The format is ADME, subcellular. The note with it: s9, 2 h, TDE = time-dependent effect.
A short description of data set [13]: Drug metabolism in Sprague-Dawley rat liver S9 fraction assessed as 5-(3-(6-carbamoyl-7-methoxyquinolin-4-ylthio)-1-(carboxymethylamino)-1-oxopropan-2-ylamino)-[…]-5-oxopentanoic acid level at 50 uM up to 60 mins by HPLC analysis in presence of GSH and absence of NADPH. The note with it: s9, 1 h.
Data set [14] is described as follows: Drug metabolism in cynomolgus monkey liver S9 fraction assessed as decrease of parent compound level at 50 uM up to 120 mins by HPLC analysis in presence of GSH and NADPH. The format is ADME, subcellular, Macaca fascicularis. The note with it: s9, 2 h, TDE = time-dependent effect.
Data set [15] can be described thus: Drug metabolism in human liver S9 fraction assessed as decrease of parent compound level at 50 uM up to 120 mins by HPLC analysis in presence of GSH and absence of NADPH. The format is ADME, tissue-based. The conditions noted are these: s9, 2 h, TDE = time-dependent effect.
A short description of data set [16]: Drug metabolism in Sprague-Dawley rat liver S9 fraction assessed as decrease of parent compound level at 50 uM up to 120 mins by HPLC analysis in presence of GSH and NADPH. The format is ADME, subcellular. The conditions noted are these: s9, 2 h, TDE = time-dependent effect.
Data set [17] in a line: Drug metabolism in cynomolgus monkey liver S9 fraction assessed as 5-(3-(6-carbamoyl-7-methoxyquinolin-4-ylthio)-1-(carboxymethylamino)-1-oxopropan-2-ylamino)-[…]-5-oxopentanoic acid level at 50 uM up to 120 mins by HPLC analysis in presence of GSH and absence of NADPH. The conditions noted are these: s9, 2 h. Format: ADME, Macaca fascicularis.

On to `COc1cc2nccc(N[C@@H](CSSC[C@H](Nc3ccnc4cc(OC)c(C(N)=O)cc34)C(=O)O)C(=O)O)c2cc1C(N)=O`, for which the Retention_time in the data set on Cynomolgus monkey [1] is given as 13.5 min. The Drug metabolism result in the data set with Cynomolgus monkey [2] was “metabolite_detected”.

`COc1cc2nccc(N[C@@H](CS)C(=O)O)c2cc1C(N)=O` returned a Retention_time in the data set with Cynomolgus monkey [1] of 14.5 min. For the same molecule, in the data set with Cynomolgus monkey [2], the Drug metabolism result is “metabolite_detected”.

Turning to `COc1cc2nccc(N[C@@H](CSc3ccnc4cc(OC)c(C(N)=O)cc34)C(=O)O)c2cc1C(N)=O`, the Retention_time in the data set on Cynomolgus monkey [1] is 17.1 min. In the data set with Cynomolgus monkey [2], the Drug metabolism result is “metabolite_detected”.

As for `COc1cc2nccc(Oc3ccc(NC(=O)NC4CC4)c(Cl)c3)c2cc1C(N)=O.CS(=O)(=O)O` [LENVATINIB MESYLATE], the Drug metabolism result in data set [3] is “metabolite_detected”; in data set [4] it was “metabolite_detected”; in data set [5], “metabolite_detected”; in [6], “metabolite_detected”; in [7] it was “metabolite_detected”; in data set [8], “tde”. The Drug metabolism result in data set [9] is recorded as “metabolite_detected”; in data set [10], “metabolite_detected”; in data set [11] it was “tde”; in data set [12] it was “tde”; in [13] it was “metabolite_detected”; in data set [14], “tde”. Moreover, the results for the Drug metabolism result in data set [15], in data set [16] and in data set [17] were “tde”, “tde” and “metabolite_detected”, respectively. Moreover, the Retention_time in the data set on Cynomolgus monkey [1] amounted to 46.4 min.
